Several values for one entry are separate records, joined by “and”; a condition that tells them apart may be missing. Equal entries are not always repeated. Where two headings read alike, the source gives them in different places.
Assays:
[1] = RP-HPLC hydrophobicity determination (C18 column); format: physicochemical; details: Symmetry C18, phosphate-buffered saline/methanol, y-intercept of log k vs methanol fraction, 25 °C; ± 95% confidence interval
Method: All HPLC measurements were carried out on an Agilent 1100 series HPLC system (Agilent Technologies, Waldbronn, Germany) coupled with a diode array detector (DAD). System control, data collection and data processing were accomplished using ChemStation for LC 3D software by Agilent Technologies. RP-HPLC hydrophobicity determination was carried on Symmetry C18 reversed-phase column (150 × 4.6 mm, 3.5 µm particle size) obtained by Waters (Milford, MA, USA), with phosphate-buffered saline and methanol as mobile phase. The flow rate was set at 1.0 mL/min with the injection volume of 10.0 µL whilst the column temperature was maintained at 25.0 ± 0.1 °C. To obtain hydrophobicity, the log k values were calculated using retention times of investigated compounds (tR) and retention time of sodium nitrate as unretained compound (t0). […] At least five different concentrations of methanol in the mobile phase were applied for each standard substance and all measurements at each methanol fraction were performed in triplicates. […] Column equilibration time of 20 min was necessary after every change of mobile phase. Finally, log kw C18 value, describing hydrophobicity, was obtained by calculating the y-intercept of the regression line in a plot of log k vs. methanol fraction in the mobile phase.

[2] = Affinity for immobilized phospholipids (IAM chromatography); format: physicochemical; details: IAM.PC.DD2 column, phosphate-buffered saline/methanol, y-intercept of log k vs methanol fraction; ± 95% confidence interval
Text: The same HPLC conditions, mobile phases and calculation approaches were used for evaluation of IAM affinity, as in determining hydrophobicity with the RP-HPLC column.

human serum albumin [3] = target: T1, human serum albumin (Homo sapiens, UniProt P02768); details: binding percentage to human serum albumin, biomimetic column, ± RSD (%)
T1 sequence (P02768 25-609): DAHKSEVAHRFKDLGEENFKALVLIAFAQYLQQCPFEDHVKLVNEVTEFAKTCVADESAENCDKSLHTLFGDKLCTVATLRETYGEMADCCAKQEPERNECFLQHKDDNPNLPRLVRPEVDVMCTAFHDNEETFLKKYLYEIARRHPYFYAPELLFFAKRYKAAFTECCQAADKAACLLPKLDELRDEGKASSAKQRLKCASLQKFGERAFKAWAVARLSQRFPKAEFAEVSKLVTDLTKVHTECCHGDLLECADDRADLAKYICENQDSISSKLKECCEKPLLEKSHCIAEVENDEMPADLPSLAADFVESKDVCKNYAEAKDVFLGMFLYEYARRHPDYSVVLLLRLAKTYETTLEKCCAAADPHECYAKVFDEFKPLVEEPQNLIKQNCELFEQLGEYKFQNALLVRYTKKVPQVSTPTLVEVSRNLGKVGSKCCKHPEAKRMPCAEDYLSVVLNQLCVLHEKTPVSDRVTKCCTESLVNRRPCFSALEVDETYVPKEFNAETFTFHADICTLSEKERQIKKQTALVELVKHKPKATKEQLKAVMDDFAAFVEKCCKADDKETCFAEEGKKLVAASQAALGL

human serum albumin [4] = target: T1, human serum albumin; assay: Frontal analysis of FA on HSA column (HPAC); format: binding
Method: Frontal and zonal elution studies were carried out on HSA (Chiralpak-HSA, 50 × 4.6 mm, 5 μm particle size) biomimetic column obtained by ChromTech (Cedex, France). […] Injection volume was set at 10.0 µL and the measurements were carried out at 25.0 ± 0.1 °C.

α1-acid-glycoprotein = assay: Plasma protein binding on biomimetic AGP column; format: in vitro ADME; details: for PPBAGP (%): binding percentage to α1-acid-glycoprotein, biomimetic column, ± RSD (%)

| log kw C18 [1] | log kw IAM [2] | PPBHSA (%) (human serum albumin [3]) | PPBHSA (%) (human serum albumin [3]; listed as folic acid) | moles of binding sites (mL) (human serum albumin [4]; frontal analysis, HSA column, brackets = 95% confidence interval) | type of binding site on HSA (human serum albumin [4]; linear double-reciprocal plot, 1-20 µM FA) | PPBAGP (%) (α1-acid-glycoprotein) | affinity for AGP lower than for HSA (α1-acid-glycoprotein; difference PPBHSA minus PPBAGP) | Compound |
| --- | --- | --- | --- | --- | --- | --- | --- | --- |
| 3.71 ± 0.24 | 2.77 ± 0.23 |  |  |  |  |  |  | O=C(O)c1cc(/N=N/c2ccc(S(=O)(=O)Nc3ccccn3)cc2)ccc1O [SASP, sulfasalazine] |
| 0.99 and 0.99 ± 0.31 |  | 69.40 ± 0.53% | 69.40% | 2.34 (± 1.16) × 10^–7 mol | single type of binding site | 3.45% |  | Nc1nc2ncc(CNc3ccc(C(=O)N[C@@H](CCC(=O)O)C(=O)O)cc3)nc2c(=O)[nH]1 [FA, folic acid] |
| 0.37 and 0.37 ± 0.19 | 0.17 and 0.17 ± 0.02 | 61.44 ± 0.51% |  |  |  |  |  | Nc1ccc(O)c(C(=O)O)c1 [MSZ, mesalazine] |
| 3.01 ± 0.09 | 1.20 ± 0.11 | 91.64 ± 0.04% |  |  |  | 77.60 ± 0.58% | 14% | O=C(O)CCNC(=O)c1ccc(/N=N/c2ccc(O)c(C(=O)O)c2)cc1 [BSZ, balsalazide] |
| 3.25 ± 0.09 | 1.69 ± 0.17 | 96.00 ± 0.03% |  |  |  |  |  | O=C(O)c1cc(/N=N/c2ccc(O)c(C(=O)O)c2)ccc1O [OSZ, olsalazine] |
